Laboratory results from ChEMBL document CHEMBL4184145, “Synthesis and structure-activity relationship of teixobactin analogues via convergent Ser ligation” (2017).
Values after ≈ are worked out from the molar mass of the structure shown.

Key:
Staphylococcus aureus [1] = experiment: Antibacterial activity against methicillin-resistant Staphylococcus aureus clinical isolate SA86 by broth dilution assay; assay type: functional
Staphylococcus aureus [2] = experiment: Antibacterial activity against methicillin-susceptible Staphylococcus aureus ATCC 29213 by broth dilution assay; assay type: functional

CC[C@@H](C)[C@@H](NC(=O)[C@@H](CCC(N)=O)NC(=O)[C@H](CO)NC(=O)[C@@H](NC(=O)[C@@H](Cc1ccccc1)NC)[C@@H](C)CC)C(=O)N[C@H](C(=O)N[C@@H](CO)C(=O)N[C@H]1C(=O)N[C@@H](Cc2ccccc2)C(=O)N[C@@H](CCCN)C(=O)N[C@@H]([C@@H](C)CC)C(=O)O[C@H]1C)[C@@H](C)CC
MIC (Staphylococcus aureus [1]): ≥ 32 µg/mL | MIC (Staphylococcus aureus [2]): ≥ 32 µg/mL

CC[C@@H](C)[C@@H](NC(=O)[C@@H](CC(N)=O)NC(=O)[C@H](CO)NC(=O)[C@@H](NC(=O)[C@@H](Cc1ccccc1)NC)[C@@H](C)CC)C(=O)N[C@H](C(=O)N[C@@H](CO)C(=O)N[C@H]1C(=O)N[C@@H](C)C(=O)N[C@@H](CCCN)C(=O)N[C@@H]([C@@H](C)CC)C(=O)O[C@H]1C)[C@@H](C)CC
MIC (Staphylococcus aureus [1]): 4 µg/mL (≈ 3.37 µM) | MIC (Staphylococcus aureus [2]): 4 µg/mL (≈ 3.37 µM)

CC[C@@H](C)[C@@H](NC(=O)[C@@H](CCC(N)=O)NC(=O)[C@H](CCCCN)NC(=O)[C@@H](NC(=O)[C@@H](Cc1ccccc1)NC)[C@@H](C)CC)C(=O)N[C@H](C(=O)N[C@@H](CO)C(=O)N[C@H]1C(=O)N[C@@H](C)C(=O)N[C@@H](CCCN)C(=O)N[C@@H]([C@@H](C)CC)C(=O)O[C@H]1C)[C@@H](C)CC
MIC (Staphylococcus aureus [1]): 8 µg/mL (≈ 6.43 µM) | MIC (Staphylococcus aureus [2]): 4 µg/mL (≈ 3.22 µM)

CC[C@@H](C)[C@@H](NC(=O)[C@@H](CCC(N)=O)NC(=O)[C@H](CO)NC(=O)[C@@H](NC(=O)[C@@H](Cc1ccccc1)NC)[C@@H](C)CC)C(=O)N[C@H](C(=O)N[C@@H](CO)C(=O)N[C@H]1C(=O)N[C@@H](C)C(=O)N[C@@H](CCCN)C(=O)N[C@@H](CC(C)C)C(=O)O[C@H]1C)[C@@H](C)CC
MIC (Staphylococcus aureus [1]): ≥ 32 µg/mL | MIC (Staphylococcus aureus [2]): ≥ 32 µg/mL

CC[C@@H](C)[C@@H](NC(=O)[C@@H](CCC(N)=O)NC(=O)[C@H](CO)NC(=O)[C@@H](NC(=O)[C@@H](Cc1ccccc1)NC)[C@@H](C)CC)C(=O)N[C@H](C(=O)N[C@@H](CO)C(=O)N[C@H]1C(=O)N[C@@H](CCCN)C(=O)N[C@@H](CCCN)C(=O)N[C@@H]([C@@H](C)CC)C(=O)O[C@H]1C)[C@@H](C)CC
MIC (Staphylococcus aureus [1]): 8 µg/mL (≈ 6.42 µM) | MIC (Staphylococcus aureus [2]): 8 µg/mL (≈ 6.42 µM)

CC[C@H](C)[C@H](NC(=O)[C@@H](C)NC(=O)[C@@H](CCC(N)=O)NC(=O)[C@H](CO)NC(=O)[C@@H](NC(=O)[C@@H](Cc1ccccc1)NC)[C@@H](C)CC)C(=O)N[C@@H](CO)C(=O)N[C@H]1C(=O)N[C@@H](C)C(=O)N[C@@H](CCCN)C(=O)N[C@@H]([C@@H](C)CC)C(=O)O[C@H]1C
MIC (Staphylococcus aureus [1]): ≥ 32 µg/mL | MIC (Staphylococcus aureus [2]): ≥ 32 µg/mL

CC[C@@H](C)[C@@H](NC(=O)[C@H](CCC(N)=O)NC(=O)[C@H](CO)NC(=O)[C@@H](NC(=O)[C@@H](Cc1ccccc1)NC)[C@@H](C)CC)C(=O)N[C@H](C(=O)N[C@@H](CO)C(=O)N[C@H]1C(=O)N[C@@H](C)C(=O)N[C@@H](CCCN)C(=O)N[C@@H]([C@@H](C)CC)C(=O)O[C@H]1C)[C@@H](C)CC
MIC (Staphylococcus aureus [1]): ≥ 32 µg/mL | MIC (Staphylococcus aureus [2]): ≥ 32 µg/mL

CC[C@@H](C)[C@@H](NC(=O)[C@@H](CCC(N)=O)NC(=O)[C@H](CO)NC(=O)[C@@H](NC(=O)[C@@H](Cc1ccccc1)NC)[C@@H](C)CC)C(=O)N[C@@H](Cc1ccccc1)C(=O)N[C@@H](CO)C(=O)N[C@H]1C(=O)N[C@@H](C)C(=O)N[C@@H](CCCN)C(=O)N[C@@H]([C@@H](C)CC)C(=O)O[C@H]1C
MIC (Staphylococcus aureus [1]): ≥ 32 µg/mL | MIC (Staphylococcus aureus [2]): ≥ 32 µg/mL

CC[C@@H](C)[C@@H](NC(=O)[C@@H](CCC(N)=O)NC(=O)[C@H](C)NC(=O)[C@@H](NC(=O)[C@@H](Cc1ccccc1)NC)[C@@H](C)CC)C(=O)N[C@H](C(=O)N[C@@H](CO)C(=O)N[C@H]1C(=O)N[C@@H](C)C(=O)N[C@@H](CCCN)C(=O)N[C@@H]([C@@H](C)CC)C(=O)O[C@H]1C)[C@@H](C)CC
MIC (Staphylococcus aureus [1]): 4 µg/mL (≈ 3.37 µM) | MIC (Staphylococcus aureus [2]): 4 µg/mL (≈ 3.37 µM)

CC[C@@H](C)[C@@H](NC(=O)[C@@H](CCC(N)=O)NC(=O)[C@H](CO)NC(=O)[C@@H](NC(=O)[C@@H](Cc1ccccc1)NC)[C@@H](C)CC)C(=O)N[C@H](C(=O)N[C@@H](CO)C(=O)N[C@H]1C(=O)N[C@@H](C)C(=O)N[C@@H](CCCN)C(=O)N[C@@H](C(C)C)C(=O)O[C@H]1C)[C@@H](C)CC
MIC (Staphylococcus aureus [1]): 8 µg/mL (≈ 6.73 µM) | MIC (Staphylococcus aureus [2]): 8 µg/mL (≈ 6.73 µM)

CC[C@@H](C)[C@@H](NC(=O)[C@@H](CCC(N)=O)NC(=O)[C@H](CO)NC(=O)[C@@H](NC(=O)[C@@H](Cc1ccccc1)NC)[C@@H](C)CC)C(=O)N[C@H](C(=O)N[C@@H](CO)C(=O)N[C@H]1C(=O)NCC(=O)N[C@@H](CCCN)C(=O)N[C@@H]([C@@H](C)CC)C(=O)O[C@H]1C)[C@@H](C)CC
MIC (Staphylococcus aureus [1]): ≥ 32 µg/mL | MIC (Staphylococcus aureus [2]): ≥ 32 µg/mL

CC[C@H](C)[C@H](NC(=O)[C@@H](Cc1ccccc1)NC)C(=O)N[C@@H](CO)C(=O)N[C@H](CCC(N)=O)C(=O)N[C@@H](C(=O)N[C@H](C(=O)N[C@@H](CO)C(=O)N[C@H]1C(=O)N[C@@H](C)C(=O)N[C@@H](CCCN)C(=O)N[C@@H]([C@@H](C)CC)C(=O)O[C@H]1C)[C@@H](C)CC)C(C)C
MIC (Staphylococcus aureus [1]): 16 µg/mL (≈ 13.5 µM) | MIC (Staphylococcus aureus [2]): 8 to 16 µg/mL (≈ 6.73 to 13.5 µM)

CC[C@@H](C)[C@@H](NC(=O)[C@@H](CCC(N)=O)NC(=O)[C@H](CO)NC(=O)[C@@H](NC(=O)[C@@H](Cc1ccccc1)NC)[C@@H](C)CC)C(=O)N[C@@H](CC(C)C)C(=O)N[C@@H](CO)C(=O)N[C@H]1C(=O)N[C@@H](C)C(=O)N[C@@H](CCCN)C(=O)N[C@@H]([C@@H](C)CC)C(=O)O[C@H]1C
MIC (Staphylococcus aureus [1]): ≥ 32 µg/mL | MIC (Staphylococcus aureus [2]): ≥ 32 µg/mL

CC[C@@H](C)[C@@H](NC(=O)[C@@H](CCC(N)=O)NC(=O)[C@H](CO)NC(=O)[C@@H](NC(=O)[C@@H](Cc1ccccc1)NC)[C@@H](C)CC)C(=O)N[C@@H](C)C(=O)N[C@@H](CO)C(=O)N[C@H]1C(=O)N[C@@H](C)C(=O)N[C@@H](CCCN)C(=O)N[C@@H]([C@@H](C)CC)C(=O)O[C@H]1C
MIC (Staphylococcus aureus [1]): ≥ 32 µg/mL | MIC (Staphylococcus aureus [2]): ≥ 32 µg/mL

CC[C@@H](C)[C@@H](NC(=O)[C@@H](CCC(N)=O)NC(=O)[C@H](CO)NC(=O)[C@@H](NC(=O)[C@@H](Cc1ccccc1)NC)[C@@H](C)CC)C(=O)N[C@H](C(=O)N[C@@H](CO)C(=O)N[C@H]1C(=O)N[C@H](C)C(=O)N[C@@H](CCCN)C(=O)N[C@@H]([C@@H](C)CC)C(=O)O[C@H]1C)[C@@H](C)CC
MIC (Staphylococcus aureus [1]): ≥ 32 µg/mL | MIC (Staphylococcus aureus [2]): ≥ 32 µg/mL

CC[C@@H](C)[C@@H](NC(=O)[C@@H](CCC(N)=O)NC(=O)[C@H](CC(N)=O)NC(=O)[C@@H](NC(=O)[C@@H](Cc1ccccc1)NC)[C@@H](C)CC)C(=O)N[C@H](C(=O)N[C@@H](CO)C(=O)N[C@H]1C(=O)N[C@@H](C)C(=O)N[C@@H](CCCN)C(=O)N[C@@H]([C@@H](C)CC)C(=O)O[C@H]1C)[C@@H](C)CC
MIC (Staphylococcus aureus [1]): ≥ 32 µg/mL | MIC (Staphylococcus aureus [2]): 16 µg/mL (≈ 13 µM)

CC[C@@H](C)[C@@H](NC(=O)[C@@H](CCC(N)=O)NC(=O)[C@H](CO)NC(=O)[C@@H](NC(=O)[C@@H](Cc1ccccc1)NC)[C@@H](C)CC)C(=O)N[C@H](C(=O)N[C@@H](CO)C(=O)N[C@H]1C(=O)N[C@@H](C)C(=O)N[C@@H](CCCN)C(=O)N[C@@H]([C@@H](C)CC)C(=O)O[C@H]1C)C(C)C
MIC (Staphylococcus aureus [1]): ≥ 32 µg/mL | MIC (Staphylococcus aureus [2]): ≥ 32 µg/mL

CC[C@@H](C)[C@@H](NC(=O)[C@@H](CCC(N)=O)NC(=O)[C@H](CO)NC(=O)[C@H](Cc1ccccc1)NC(=O)[C@@H](Cc1ccccc1)NC)C(=O)N[C@H](C(=O)N[C@@H](CO)C(=O)N[C@H]1C(=O)N[C@@H](C)C(=O)N[C@@H](CCCN)C(=O)N[C@@H]([C@@H](C)CC)C(=O)O[C@H]1C)[C@@H](C)CC
MIC (Staphylococcus aureus [1]): ≥ 32 µg/mL | MIC (Staphylococcus aureus [2]): ≥ 32 µg/mL
